Reference: patent US9624269B2, “Peptide inhibitors of BACE1” (GENENTECH, INC., priority 2011, dated 2017)
Blank lines part the entries; values can stand above or below the compound they belong to. Positions of bridges follow the written chain, without caps; N, C: chain ends. Residues, ends and D or L forms follow the SMILES beside them.

Key:
human BACE1 (rhBACE1) [1] = target: T1, human BACE1 (rhBACE1) (Homo sapiens, UniProt P56817); experiment: BACE1 fluorescence polarization (FP) competition binding assay with 5-TAMRA-BACE020 probe; conditions: for IC50: competition with 3 nM 5-TAMRA-BACE020, 12 nM rhBACE1, pH 4.4
Experimental: BACE1 Fluorescence Polarization Competition Binding Assay.
BACE1 binding assays were carried out in a final volume of 10 μL per well in black 384-well microplates (Proxiplate-Plus; Perkin Elmer, Waltham, Mass.). A standard binding reaction, initiated by the addition of 5 μL 2× enzyme to 2.5 μL of 4× binding probe and […] of 4× inhibitor, contained 12 nM rhBACE1, 3 nM 5-TAMRA-[…] (SEQ ID NO: 16) (5-TAMRA-BACE020), 50 mM NaOAc, pH 4.4 with 0.1% CHAPS. The reaction was permitted to proceed towards equilibrium for 2 h at ambient temperature prior to fluorescence polarization measurement using Envision (Perkin Elmer). The parallel and perpendicular fluorescent emissions measured in each well at 595 nm (excitation 531 nm polarized light) were used to determine the milli-polarization level (mP) using the following formula: mP=1000*(S-G*P)/(S+G*P) where S=parallel emission, P=perpendicular emission and G=0.65. The mP value in each well was plotted as a function of inhibitor concentration and the 50% inhibition (IC50) values were determined using a nonlinear least squares fit of the data to a four parameter equation using Prism 5.0 software (GraphPad Software, San Diego, Calif.). 5-TAMRA-labeled BACE020 was purchased from American Peptide Company, Inc (Sunnyvale, Calif.) and solubilized in DMSO to 100 mM for storage.
The affinities of BACE1 peptide ligands were measured using the abovementioned competition binding FP assay for determining IC50 values with serially diluted peptides. A Caliper assay was used to measure the inhibition of BACE1 enzymatic activity by peptide ligands. […] Furthermore, the IC50 values measured by the Caliper assay for peptides BACE017-021 and BACE025-028 are consistent with those measured by the HTRF assay.
Target sequence in this assay (P56817 46-501): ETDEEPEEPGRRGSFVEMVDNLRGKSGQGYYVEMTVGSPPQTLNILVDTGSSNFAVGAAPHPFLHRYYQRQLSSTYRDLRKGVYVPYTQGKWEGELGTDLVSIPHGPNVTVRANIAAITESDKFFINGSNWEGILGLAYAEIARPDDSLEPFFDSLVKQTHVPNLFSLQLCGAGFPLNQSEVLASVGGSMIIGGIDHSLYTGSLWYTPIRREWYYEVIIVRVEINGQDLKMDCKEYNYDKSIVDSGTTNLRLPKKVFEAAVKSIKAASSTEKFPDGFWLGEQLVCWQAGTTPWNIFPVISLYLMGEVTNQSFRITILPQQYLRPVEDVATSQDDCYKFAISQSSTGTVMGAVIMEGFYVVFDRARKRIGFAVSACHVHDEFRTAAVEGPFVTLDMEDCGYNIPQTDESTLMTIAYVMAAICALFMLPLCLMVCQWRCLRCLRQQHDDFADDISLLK

human BACE1 (rhBACE1) [2] = target: T1, human BACE1 (rhBACE1); experiment: BACE1 HTRF activity assay (Bi27 substrate); format: biochemical; conditions: Bi27 27-mer substrate, pH 4.4
Experimental: Briefly, a homogeneous time-resolved fluorescence (HTRF) assay can be used to measure BACE1 aspartyl protease activity with the use of an amyloid precursor protein BACE1 cleavage site peptide. For example, the Bi27 peptide (Biotin-[…] (SEQ ID NO:5), American Peptide Company)), is combined with BACE1 pre-incubated with an anti-BACE antibody in BACE reaction buffer (50 mM sodium acetate pH 4.4 and 0.1% CHAPS) in a 384-well plate (Proxiplate™, Perkin-Elmer). The proteolytic reaction mixture is incubated at ambient temperature for 75 minutes and is quenched by the addition of 5 μL HTRF detection mixture containing 2 nM Streptavidin-D2 and 150 nM of an anti-amyloid beta antibody labeled with Europium cryptate in detection buffer (200 mM Tris pH 8.0, 20 mM EDTA, 0.1% BSA, and 0.8M KF). The final reaction mixture is incubated at ambient temperature for 60 minutes and the TR-FRET signal is measured using an EnVision Multilabel Plate Reader™ (Perkin-Elmer) at an excitation wavelength of 320 nm and emission wavelengths of 615 and 665 nm.
BACE1 HTRF Activity Assay.
The BACE1 HTRF reaction was initiated by the addition of 2 μl of 600 nM Bi27 (Biotin-[…] (SEQ ID NO: 5), American Peptide Company) to 6 μl of 2.7 nM rhBACE1 pre-incubated with peptides or small molecule inhibitors in BACE1 reaction buffer (50 mM NaOAc pH 4.4 and 0.1% CHAPS) in a 384-well Proxiplate (Perkin Elmer). The 8 μl proteolytic reaction mixture was incubated at ambient temperature for 24 h and was quenched by the addition of 8 μl HTRF detection mixture containing 150 nM Streptavidin-D2 and 5 nM 6E10 labeled with Europium cryptate in detection buffer (200 mM Tris pH 8.0, 20 mM EDTA, 0.1% BSA, and 0.8 M KF). The final reaction mixture was incubated at room temperature for 60 min and the TR-FRET signal was measured on the EnVision Multilabel Plate Reader (Perkin Elmer) (excitation at 320 nm, emission at 615 and 665 nm). The data was analyzed using GraphPad Prism 5 (La Jolla, Calif.).
Target sequence in this assay (P56817 46-501): as above

human BACE1 (rhBACE1) [3] = target: T1, human BACE1 (rhBACE1); experiment: Caliper BACE1 activity assay (microfluidic capillary electrophoresis); format: biochemical; parameters: containing human BACE1 (extracellular domain); conditions: for IC50: 12 nM rhBACE1, 1 μM FAM-substrate, pH 4.4
Experimental: An MCE assay reactions can be carried out in a standard enzymatic reaction, initiated by the addition of substrate to enzyme and 4× compound, containing human BACE1 (extracellular domain), amyloid precursor protein beta secretase active site peptide (FAM-[…]-CONH2 (SEQ ID NO: 20)), 50 mM NaOAc pH 4.4 and 0.1% CHAPS. After incubation for 60 minutes at ambient temperature, the product and substrate in each reaction is separated using a 12-sipper microfluidic chip analyzed on an LC3000® (both, Caliper Life Sciences). The separation of product and substrate is optimized by choosing voltages and pressure using the manufacturer's optimization software. Substrate conversion is calculated from the electrophoregram using HTS Well Analyzer software (Caliper Life Sciences).
BACE1, BACE2 and Cathepsin D Activity Assay Using Microfluidic Capillary Electrophoresis (MCE).
BACE1, BACE2, and Cathepsin D reactions were carried out in a final volume of 20 μl per well in a 384-well microplate using a Caliper LabChip 3000 (Hopkinton, Mass.). A standard enzymatic reaction, initiated by the addition of 10 μ12× substrate to 5 μl of 4× enzyme and 5 μl of 4× peptide or small molecule inhibitor, contained 12 nM rhBACE1, 1 μM FAM-[…]-amide (SEQ ID NO: 20), 50 mM NaOAc, pH 4.4, 0.1% CHAPS. The same reaction conditions were used for rhBACE2 (5 nM) and Cathepsin D (6 nM) (Cat. No. 219394; EMD Biosciences, San Diego, Calif.). After incubation for 60 min at room temperature, the product and substrate in each reaction were separated using a 12-sipper microfluidic chip. Separation of product and substrate was optimized by choosing voltages and pressure using the Caliper Optimizer software. The separation buffer contained 100 mM HEPES, pH 7.2, 0.015% Brij-35, 0.1% Coating Reagent #3, 10 mM EDTA and 5% DMSO. The separation conditions used a downstream voltage of −500 V, an upstream voltage of −2250 V, and a screening pressure of −1.2 psi. The product and substrate fluorescence was excited at 488 nm and detected at 530 nm. Substrate conversion was calculated from the electrophoregram using the Caliper HTS Well Analyzer software.
Target sequence in this assay (P56817 46-457 limits assumed): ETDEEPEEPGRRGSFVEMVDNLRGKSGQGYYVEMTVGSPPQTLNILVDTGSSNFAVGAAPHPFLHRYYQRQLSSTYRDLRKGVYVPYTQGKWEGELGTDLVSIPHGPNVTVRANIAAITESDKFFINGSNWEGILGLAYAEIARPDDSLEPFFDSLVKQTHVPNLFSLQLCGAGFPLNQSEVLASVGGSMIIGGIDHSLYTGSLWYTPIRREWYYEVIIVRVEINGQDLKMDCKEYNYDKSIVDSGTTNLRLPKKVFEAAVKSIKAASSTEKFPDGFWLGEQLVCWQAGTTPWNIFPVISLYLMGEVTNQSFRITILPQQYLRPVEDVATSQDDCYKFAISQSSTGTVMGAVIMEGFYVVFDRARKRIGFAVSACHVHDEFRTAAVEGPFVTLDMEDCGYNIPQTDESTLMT

Compound: CC[C@H](C)[C@H](NC(=O)[C@H](Cc1c[nH]cn1)NC(=O)[C@H](CCC(=O)O)NC(=O)[C@H](CCC(=O)O)NC(=O)[C@H](CC(N)=O)NC(C)=O)C(=O)N[C@@H](Cc1ccc(O)cc1)C(=O)N[C@H]1CSSC[C@@H](C(=O)NCC(N)=O)NC(=O)CNC(=O)[C@H](CC(C)C)NC(=O)CNC(=O)[C@H](CC(C)C)NC(=O)[C@H](CC(C)C)NC(=O)[C@H](CCCNC(=N)N)NC1=O [BACE017] (Ac-NEEHIYCRLLGLGCG-NH2; disulfide 7-14)
- IC50 (human BACE1 (rhBACE1) [1]): > 10 µM
- IC50 (human BACE1 (rhBACE1) [2]): 0.438 µM
- IC50 (human BACE1 (rhBACE1) [3]): > 10 µM

Compound: CSCC[C@@H]1NC(=O)[C@H](CC(C)C)NC(=O)[C@H](CCCNC(=N)N)NC(=O)[C@@H](NC(=O)[C@H](Cc2ccc(O)cc2)NC(=O)[C@@H]2CCCN2C(=O)[C@H](CO)NC(=O)[C@H](CC(C)C)NC(=O)[C@H](CCC(=O)O)NC(=O)[C@H](CC(N)=O)NC(C)=O)CSSC[C@@H](C(=O)N[C@@H](CC(=O)O)C(N)=O)NC(=O)CNC(=O)[C@H](CC(C)C)NC(=O)CNC1=O [BACE019] (Ac-NELSPYCRLMGLGCD-NH2; disulfide 7-14)
- IC50 (human BACE1 (rhBACE1) [1]): 0.01 ± 0.003 µM
- IC50 (human BACE1 (rhBACE1) [2]): 0.01 µM

Compound: CC[C@H](C)[C@@H]1NC(=O)CNC(=O)[C@H](CC(C)C)NC(=O)[C@H](CC(C)C)NC(=O)[C@H](CCCNC(=N)N)NC(=O)[C@@H](NC(=O)[C@H](Cc2ccc(O)cc2)NC(=O)[C@H](CCSC)NC(=O)[C@H](CO)NC(=O)[C@H](CCC(=O)O)NC(=O)[C@H](CCC(=O)O)NC(C)=O)CSSC[C@@H](C(=O)NCC(N)=O)NC(=O)CNC1=O [BACE029] (Ac-EESMYCRLLGIGCG-NH2; disulfide 6-13)
- IC50 (human BACE1 (rhBACE1) [1]): 0.012 µM
- IC50 (human BACE1 (rhBACE1) [3]): 0.013 ± 0.008 µM

Compound: CC[C@H](C)[C@@H]1NC(=O)CNC(=O)[C@H](CC(C)C)NC(=O)[C@H](CC(C)C)NC(=O)[C@H](CCCNC(=N)N)NC(=O)[C@@H](NC(=O)[C@H](Cc2ccc(O)cc2)NC(=O)[C@H](CCSC)NC(=O)[C@H](CO)NC(C)=O)CSSC[C@@H](C(=O)NCC(N)=O)NC(=O)CNC1=O [BACE031] (Ac-SMYCRLLGIGCG-NH2; disulfide 4-11)
- weakening of affinity relative to BACE020 (human BACE1 (rhBACE1) [1]; FP binding assay): 3-4 fold
- weakening of inhibitory activity relative to BACE020 (human BACE1 (rhBACE1) [3]; Caliper activity assay): 3-4 fold

Compound: CC[C@H](C)[C@@H]1NC(=O)CNC(=O)[C@H](CC(C)C)NC(=O)[C@H](CC(C)C)NC(=O)[C@H](CCCNC(=N)N)NC(=O)[C@@H](NC(=O)[C@H](Cc2ccc(O)cc2)NC(=O)[C@H](CCSC)NC(C)=O)CSSC[C@@H](C(=O)NCC(N)=O)NC(=O)CNC1=O [BACE032] (Ac-MYCRLLGIGCG-NH2; disulfide 3-10)
- IC50 (human BACE1 (rhBACE1) [1]): > 10 µM

Compound: CC[C@H](C)[C@@H]1NC(=O)CNC(=O)[C@H](CC(C)C)NC(=O)[C@H](CC(C)C)NC(=O)[C@H](CCCNC(=N)N)NC(=O)[C@@H](NC(=O)[C@H](Cc2ccc(O)cc2)NC(C)=O)CSSC[C@@H](C(=O)NCC(N)=O)NC(=O)CNC1=O [BACE033] (Ac-YCRLLGIGCG-NH2; disulfide 2-9)
- IC50 (human BACE1 (rhBACE1) [1]): > 10 µM

Compound: Ac-KEESIYSRLMGLGSG-NH2 [BACE025]
- IC50 (human BACE1 (rhBACE1) [1]): ≥ 10 µM
- IC50 (human BACE1 (rhBACE1) [3]): ≥ 10 µM

Compound: Ac-PEESLYSRLLALGSG-NH2 [BACE028]
- IC50 (human BACE1 (rhBACE1) [1]): > 10 µM
- IC50 (human BACE1 (rhBACE1) [3]): > 10 µM

The remaining lines, values ahead:

- IC50 (human BACE1 (rhBACE1) [1]): > 10 µM
Compound: CC[C@H](C)[C@@H]1NC(=O)CNC(=O)[C@H](CC(C)C)NC(=O)[C@H](CC(C)C)NC(=O)[C@H](CCCNC(=N)N)NC(=O)[C@@H](NC(C)=O)CSSC[C@@H](C(=O)NCC(N)=O)NC(=O)CNC1=O [BACE034] (Ac-CRLLGIGCG-NH2; disulfide 1-8)

- IC50 (human BACE1 (rhBACE1) [1]): > 10 µM
- IC50 (human BACE1 (rhBACE1) [3]): > 10 µM
Compound: CC[C@H](C)[C@@H]1NC(=O)CNC(=O)[C@H](CC(C)C)NC(=O)[C@H](CC(C)C)NC(=O)[C@H](C)NC(=O)[C@@H](NC(=O)[C@H](Cc2ccc(O)cc2)NC(=O)[C@H](CCSC)NC(=O)[C@H](CO)NC(=O)[C@H](CCC(=O)O)NC(=O)[C@H](CCC(=O)O)NC(=O)[C@H](CC(N)=O)NC(C)=O)CSSC[C@@H](C(=O)NCC(N)=O)NC(=O)CNC1=O [BACE048] (Ac-NEESMYCALLGIGCG-NH2; disulfide 7-14)

- IC50 (human BACE1 (rhBACE1) [1]): 0.012 ± 0.003 µM
- IC50 (human BACE1 (rhBACE1) [3]): 0.007 ± 0.004 µM
Compound: CC[C@H](C)[C@@H]1NC(=O)CNC(=O)[C@H](CC(C)C)NC(=O)[C@H](CC(C)C)NC(=O)[C@H](CCCNC(=N)N)NC(=O)[C@@H](NC(=O)[C@H](Cc2ccc(O)cc2)NC(=O)[C@H](CCSC)NC(=O)[C@H](CO)NC(=O)[C@H](CCC(=O)O)NC(=O)[C@H](CCC(=O)O)NC(=O)[C@H](CC(N)=O)NC(C)=O)CSSC[C@@H](C(=O)N[C@@H](C)C(N)=O)NC(=O)CNC1=O [BACE054] (Ac-NEESMYCRLLGIGCA-NH2; disulfide 7-14)

- IC50 (human BACE1 (rhBACE1) [1]): > 10 µM
- IC50 (human BACE1 (rhBACE1) [3]): > 10 µM
Compound: CC[C@H](C)[C@@H]1NC(=O)CNC(=O)[C@H](CC(C)C)NC(=O)[C@H](CC(C)C)NC(=O)[C@H](C)NC(=O)[C@@H](NC(=O)[C@H](Cc2ccc(O)cc2)NC(=O)[C@H](CCSC)NC(=O)[C@H](CO)NC(=O)[C@H](CCC(=O)O)NC(C)=O)CSSC[C@@H](C(=O)NCC(N)=O)NC(=O)CNC1=O [BACE057] (Ac-ESMYCALLGIGCG-NH2; disulfide 5-12)

- IC50 (human BACE1 (rhBACE1) [1]): > 10 µM
Compound: CC[C@H](C)[C@H](NC(=O)[C@H](Cc1ccccc1)NC(=O)[C@H](Cc1ccc(O)cc1)NC(=O)[C@@H]1CCCN1C(=O)[C@H](Cc1ccc(O)cc1)NC(C)=O)C(=O)N1CCC[C@H]1C(=O)N[C@@H](CC(C)C)C(N)=O [BMS4, reference compound]
